Test results from patent US20230115176A1 (Ra Pharmaceuticals, Inc., priority 2019, published 2023).
In brackets after ≈: the same amount, converted by molar mass.

How the values were obtained:
[1] = Kinetic solubility in PBS pH 7.4, HPLC-UV (Example 21, Table 27); assay type: physicochemical; details: phosphate buffered saline, aqueous buffer, kinetic from dmso stock, 0.5 M PBS, shaken minimum 24 h at approximately 25° C., HPLC-UV 270 nm
Description: Compounds were analyzed for kinetic solubility values using a standard kinetic solubility assay format. First, test compounds were dissolved in DMSO (Aldrich Chemical Co., Milwaukee, Wis., USA) at a concentration of 0.010 mol/L and used to prepare standard calibrators in DMSO solution. 500.0 μM, 250.0 μM, 125.0 μM, 62.5 μM, 31.2 μM, and 15.6 μM standards were prepared in a Greiner UV-Star clear V-bottom 96-well plate (Greiner-Bio One, Germany) for generating a standard curve. Using Alfa Aesar's Sodium phosphate, 0.2 M buffer solution, pH 7.4 (Alfa Aesar, Haverhill, Mass., USA), aqueous phosphate buffered saline (PBS) was prepared by diluting with Milli-Q water for a final concentration of 0.05 M. The pH of the solution was adjusted to 7.4±0.1 using 0.1 M hydrochloric acid (Fisher Scientific Waltham, Mass., USA) or 0.1 M aqueous sodium hydroxide (Fisher Scientific Waltham, Mass., USA).
10 μL of 0.010 mol/L DMSO test compound stock solutions were pipetted to separate 1.5 mL centrifuge tubes in triplicate. To these tubes, 190 μl of 0.05 M PBS was added. Each tube was gently vortexed for 5 sec. The tubes were shaken for a minimum of 24 h at approximately 25° C. After shaking, the solutions were transferred to 0.5 mL centrifuge filter tubes (MilliporeSigma, Burlington, Mass., USA) and centrifuged at 10,000 rpm for 5 min. After centrifugation, supernatants were collected and used for compound concentration analysis.
Compound concentrations in each solution were determined using high pressure liquid chromatography (HPLC) with ultraviolet (UV) detection and comparison with external standards. For HPLC, a Waters Acquity CSH Phenyl-Hexyl column (2.1 mm×50 mm, 1.7 μm) was used together with a generic gradient method on a Waters H-class system equipped with a diode array detector: Solvent A=0.1% formic acid in water, Solvent B=0.1% formic acid in acetonitrile (MilliporeSigma, Burlington, Mass., USA), flow=0.65 mL/min, (t=0 min: 95% A-5% B, t=4.75 min: 0% A-100% B, t=4.85 min: 0% A-100% B, t=4.86 min: 95% A-5% B, t=5 min: 95% A-5% B). UV quantifications were performed at 270 nm. Solution concentrations were calculated using Microsoft Excel.

Human C5 = molecular target: T1, Human C5 (Homo sapiens, UniProt P01031); test: Red blood cell (RBC) hemolysis assay, luminescent (Example 13, Table 22); assay type: cell-based; details: sheep EA cells, […] C5-depleted human serum, 0.5 nM human C5, 1 hour 37° C., luminescence; further: 1.5% C5-depleted human serum
T1 construct: purchased Complement Technology
T1 sequence (P01031 19-1676): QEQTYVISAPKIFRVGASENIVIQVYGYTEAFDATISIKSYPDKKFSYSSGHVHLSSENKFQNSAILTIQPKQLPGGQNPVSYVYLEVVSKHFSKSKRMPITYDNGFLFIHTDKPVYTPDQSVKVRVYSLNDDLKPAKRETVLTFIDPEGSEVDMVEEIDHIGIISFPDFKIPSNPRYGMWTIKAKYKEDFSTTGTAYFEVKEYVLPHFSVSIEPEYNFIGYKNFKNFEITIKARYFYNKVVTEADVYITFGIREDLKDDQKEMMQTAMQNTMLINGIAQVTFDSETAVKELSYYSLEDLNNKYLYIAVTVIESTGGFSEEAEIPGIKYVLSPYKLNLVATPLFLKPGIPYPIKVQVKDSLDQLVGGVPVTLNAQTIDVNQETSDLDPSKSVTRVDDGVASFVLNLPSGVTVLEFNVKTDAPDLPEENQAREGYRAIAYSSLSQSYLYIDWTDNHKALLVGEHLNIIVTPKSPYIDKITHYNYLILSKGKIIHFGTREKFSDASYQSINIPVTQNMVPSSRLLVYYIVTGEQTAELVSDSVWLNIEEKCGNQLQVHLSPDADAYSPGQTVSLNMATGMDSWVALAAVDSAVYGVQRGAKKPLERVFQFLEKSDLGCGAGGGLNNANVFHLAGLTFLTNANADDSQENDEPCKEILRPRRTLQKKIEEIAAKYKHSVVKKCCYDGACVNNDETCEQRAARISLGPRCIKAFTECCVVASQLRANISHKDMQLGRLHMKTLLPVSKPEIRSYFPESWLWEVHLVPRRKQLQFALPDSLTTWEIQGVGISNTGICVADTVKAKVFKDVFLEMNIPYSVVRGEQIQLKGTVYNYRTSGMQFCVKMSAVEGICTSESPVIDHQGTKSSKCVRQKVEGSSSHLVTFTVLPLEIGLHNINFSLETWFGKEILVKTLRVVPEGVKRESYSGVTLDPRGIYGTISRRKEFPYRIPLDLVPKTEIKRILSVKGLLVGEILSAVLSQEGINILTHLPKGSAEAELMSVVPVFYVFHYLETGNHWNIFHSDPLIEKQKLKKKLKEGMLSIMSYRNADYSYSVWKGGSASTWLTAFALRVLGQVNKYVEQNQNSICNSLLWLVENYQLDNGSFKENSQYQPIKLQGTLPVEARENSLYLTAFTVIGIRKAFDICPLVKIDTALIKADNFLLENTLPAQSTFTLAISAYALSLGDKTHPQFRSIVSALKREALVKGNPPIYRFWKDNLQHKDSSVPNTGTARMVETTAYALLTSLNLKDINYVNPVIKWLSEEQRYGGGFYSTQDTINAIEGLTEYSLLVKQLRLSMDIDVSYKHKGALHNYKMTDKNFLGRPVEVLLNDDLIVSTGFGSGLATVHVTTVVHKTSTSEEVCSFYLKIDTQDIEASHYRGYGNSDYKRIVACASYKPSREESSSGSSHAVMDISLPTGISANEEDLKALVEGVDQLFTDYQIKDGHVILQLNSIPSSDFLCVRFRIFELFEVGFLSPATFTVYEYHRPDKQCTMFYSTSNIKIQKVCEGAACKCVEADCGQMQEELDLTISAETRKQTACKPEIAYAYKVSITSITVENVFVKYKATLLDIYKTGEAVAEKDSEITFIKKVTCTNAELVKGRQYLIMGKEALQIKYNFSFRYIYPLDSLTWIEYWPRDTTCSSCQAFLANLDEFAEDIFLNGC
From the text: Compound CU0136 is a racemic mixture of Compound CU0186 and CU0187. Numbers in parenthesis following compound numbers indicate alternate enantiomers (as distinguished by retention time during chromatographical separation).

Row | SMILES | solubility kinetic [1] [µM] | IC50 (Human C5) [nM]
1 | CCCCCOc1cc(N2CCCN(Cc3ccc(Cc4nnn(C)n4)cc3OC)C2=O)ccc1OC [CU0212] | 52 (≈ 26.4 µg/mL) | 23.6
2 | COc1ccc(N2CCCN(Cc3ccnc4c3ccn4CC(=O)N(C)C)C2=O)cc1OCCCC(F)(F)C(F)(F)F [CU0256] | 22 (≈ 13.1 µg/mL) | 62.7
3 | CCCCCOc1cc(N2CCCN(Cc3ccnc4c3c(C)cn4CC(=O)N(C)C)C2=O)ccc1OC [CU0258] | 462 (≈ 241 µg/mL) | 7.5
4 | CCCCCOc1cc(N2CCCN(Cc3cccc4c3ccn4CC(=O)N3CCN=C(N(C)C)C3)C2=O)ccc1OC [CU0239] | 333 (≈ 196 µg/mL) | 11.2
5 | COc1ccc(N2CCCN(Cc3ccnc4c3ccn4CC(=O)N(C)C)C2=O)cc1OCCC[C@H]1C[C@@H]1C (racemic) [CU0752] | 75 (≈ 40 µg/mL) | –
6 | COc1cc(CC(=O)NC2CCN(C(C)C)CC2)ccc1CN1CCCN(c2ccc(OC)c(OCCCC(C)(F)F)c2)C1=O [CU0141] | 366 (≈ 231 µg/mL) | 13.1
7 | CCCCCOc1cc(N2CCCN(Cc3ccc(CNC(=O)c4cocn4)cc3OC)C2=O)ccc1OC [CU0161] | 77 (≈ 41.3 µg/mL) | 22.9
8 | CCCCCOc1cc(N2CCCN(Cc3ccc(CNC(=O)c4cnccn4)cc3OC)C2=O)ccc1OC [CU0677] | 71 (≈ 38.9 µg/mL) | –
9 | CCCCCOc1cc(N2CCCN(Cc3cccc4c3ccn4CC(=O)NC3(C)COC3)C2=O)ccc1OC [CU0245] | 142 (≈ 77.9 µg/mL) | 12.2
10 | COc1cc(CCNC2CCN(C)C2=O)ccc1CN1CCCN(c2ccc(OC)c(OCCCC3CC3)c2)C1=O (stereo not shown) [CU0643] | > 500 | –
11 | CCCCCOc1cc(N2CCCN(Cc3ccc(CCN4CCCCC4=O)cc3OC)C2=O)ccc1OC [CU0190] | 139 (≈ 74.7 µg/mL) | 41.4
12 | COc1cc(CC(=O)N(C)C)ccc1CN1CCCN(c2ccc(OC)c(OCCCC(F)(F)C(F)(F)F)c2)C1=O [CU0214] | 209 (≈ 123 µg/mL) | 21.1
13 | CCCCCOc1cc(N2CCCN(Cc3ccnc4c3ccn4CC(=O)NC3CCN(C(C)C)CC3)C2=O)ccc1OC [CU0255] | 436 (≈ 264 µg/mL) | 19.4
14 | CCCCCOc1cc(N2CCCN(Cc3ccnc4c3ccn4[C@@H]3CCN(C)C3=O)C2=O)ccc1OC [CU0667] | 139 (≈ 72.2 µg/mL) | –
15 | CCCCCOc1cc(N2CCCN(Cc3ccnc4c3c(Cl)cn4CCOC(=O)N3CCS(=O)(=O)CC3)C2=O)ccc1OC [CU0563] | 19 (≈ 12.6 µg/mL) | –
16 | CCCCCOc1cc(N2CCCN(Cc3ccc(C4CN(C)C(=O)O4)cc3OC)C2=O)ccc1OC (stereo not shown) [CU0618] | 179 (≈ 91.6 µg/mL) | –
17 | CCCCCOc1cc(N2CCCN(Cc3ccnc4c3c(Cl)cn4CCN3CCS(=O)(=O)CC3)C2=O)ccc1OC [CU0551] | 12 (≈ 7.42 µg/mL) | –
18 | CCCCCOc1cc(N2CCCN(Cc3ccnc4c3c(Cl)cn4Cc3nnnn3C)C2=O)ccc1OC [CU0570] | < 10 | –
19 | COc1cc(CC(=O)N(C)C)ccc1CN1CCCN(c2ccc(OC)c(OCC[C@@H]3C[C@@H]4CC[C@H]3C4)c2)C1=O [CU0213] | 17 (≈ 9.35 µg/mL) | 20.4
20 | COc1ccc(N2CCCN(Cc3ccnc4c3c(Cl)cn4CC(=O)N3CCNC(=O)C3)C2=O)cc1OCCCC1CC1 [CU0522] | < 10 | –
21 | CCCCCOc1cc(N2CCCN(Cc3ccnc4c3ccn4CC(=O)N3CCO[C@@H](COC)C3)C2=O)ccc1OC [CU0260] | 436 (≈ 259 µg/mL) | 25
22 | CCCCCOc1cc(N2CCCN(Cc3ccc(CNC(=O)c4cccnn4)cc3OC)C2=O)ccc1OC [CU0505] | 60 (≈ 32.9 µg/mL) | –
23 | CCCCCOc1cc(N2CCCN(Cc3ccnc4c3c(Cl)cn4CCN3CCCC3)C2=O)ccc1OC [CU0564] | 249 (≈ 138 µg/mL) | –
24 | CCCCCOc1cc(N2CCCN(Cc3ccnc4c3c(Cl)cn4CCOCCNC(C)=O)C2=O)ccc1OC [CU0559] | < 10 | –
25 | CCCCCOc1cc(N2CCCN(Cc3ccc(CC(=O)N4CCO[C@@H](COC)C4)cc3OC)C2=O)ccc1OC [CU0224] | 466 (≈ 272 µg/mL) | 15.4
26 | CCCCCOc1cc(N2CCCN(Cc3cccc4c3ccn4CC(=O)N3CCN(C)C(=O)C3)C2=O)ccc1OC [CU0246] | 287 (≈ 165 µg/mL) | 10.6
27 | CCC(F)(F)CCOc1cc(N2CCCN(Cc3ccc(CC(=O)NC4CCN(C(C)C)CC4)cc3OC)C2=O)ccc1OC [CU0207] | 415 (≈ 262 µg/mL) | 13.1
28 | CCCCCOc1cc(N2CCCN(Cc3ccc(CC(=O)N4CCO[C@H](COC)C4)cc3OC)C2=O)ccc1OC [CU0196] | > 500 | 21.1

Row | SMILES | solubility kinetic [1] [µM] | IC50 (Human C5) [nM]
29 | CCCCCOc1cc(N2CCCN(Cc3ccc(Cc4cnccn4)cc3OC)C2=O)ccc1OC [CU0614] | 101 (≈ 51 µg/mL) | –
30 | COc1cc(CC(=O)N(C)C)ccc1CN1CCCN(c2ccc(OC)c(OCCC[C@H]3C[C@H]3C)c2)C1=O (racemic) [CU0226] | 286 (≈ 150 µg/mL) | 15.7
31 | CCCCCOc1cc(N2CCCN(Cc3ccc(Cc4nnnn4C)cc3OC)C2=O)ccc1OC [CU0211] | 112 (≈ 57 µg/mL) | 15.6
32 | CCCCCOc1cc(N2CCCN(Cc3ccc(Cc4ccccn4)cc3OC)C2=O)ccc1OC [CU0672] | 440 (≈ 222 µg/mL) | –
33 | CCCCCOc1cc(N2CCCN(Cc3ccnc4c3c(Cl)cn4C(C)C(=O)N3CN(C(C)C)C3)C2=O)ccc1OC (stereo not shown) [CU0620] | 275 (≈ 168 µg/mL) | –
34 | CCCCCOc1cc(N2CCCN(Cc3ccc(C4CNC(=O)O4)cc3OC)C2=O)ccc1OC (stereo not shown) [CU0611] | 170 (≈ 84.6 µg/mL) | –
35 | CCCCCOc1cc(N2CCCN(Cc3cccc4c3ccn4CC(=O)N3CCOC(CN(C)C)C3)C2=O)ccc1OC (stereo not shown) [CU0247] | 376 (≈ 228 µg/mL) | 9.8
36 | CCCCCOc1cc(N2CCCN(Cc3ccc(CN)cc3OC)C2=O)ccc1OC [CU0201] | 389 (≈ 172 µg/mL) | 7.4
37 | COc1ccc(F)cc1CN1CCCN(c2ccc(OC)c(OCCC3CCC3)c2)C1=O [CU0154] | 58 (≈ 25.7 µg/mL) | 22.6
38 | CCCCCOc1cc(N2CCCN(Cc3cccc4c3ccn4CC(=O)NC3CNC(=O)C3)C2=O)ccc1OC (stereo not shown) [CU0243] | < 10 | 5.5
39 | CCCCCOc1cc(N2CCCN(Cc3ccc(CC(N)=O)cc3OC)C2=O)ccc1OC [CU0188] | 73 (≈ 34.3 µg/mL) | 19.9
40 | CCCCCOc1cc(N2CCCN(Cc3cccc4c3ccn4CC(=O)NC3CCNC(=O)C3)C2=O)ccc1OC (stereo not shown) [CU0244] | 200 (≈ 115 µg/mL) | 6.7
41 | CCC(F)(F)CCOc1cc(N2CCCN(Cc3ccc(CC(=O)N4CCOC(CN(C)C)C4)cc3OC)C2=O)ccc1OC (stereo not shown) [CU0175] | 486 (≈ 308 µg/mL) | 28.1
42 | CCCCCOc1cc(N2CC[C@H](C)N(Cc3cccc4[nH]cc(Cl)c34)C2=O)ccc1OC [CU0623] | 364 (≈ 171 µg/mL) | –
43 | CCCCCOc1cc(N2CCCN(Cc3ccnc4c3ccn4CC(=O)N(C)C3CCN(CC)C3)C2=O)ccc1OC (stereo not shown) [CU0257] | > 500 | 16
44 | CCCCCOc1cc(N2CCCN(Cc3ccnc4c3c(Cl)cn4Cc3nnn(C)n3)C2=O)ccc1OC [CU0556] | < 10 | –
45 | CCCCCOc1cc(N2CCCN(Cc3ccc(CNC(=O)c4ccnnc4)cc3OC)C2=O)ccc1OC [CU0503] | 62 (≈ 34 µg/mL) | –
46 | CCCCCOc1cc(N2CCCN(Cc3cncc4c3c(Cl)cn4CC(=O)N(C)C)C2=O)ccc1OC [CU0673] | 11 (≈ 5.96 µg/mL) | –
47 | CCCCCOc1cc(N2CCCN(Cc3ccc(CC(=O)N(C)C4CCN(CC)C4)cc3OC)C2=O)ccc1OC (stereo not shown) [CU0177] | 351 (≈ 204 µg/mL) | 21.1
48 | CCCCCOc1cc(N2CCCN(Cc3ccc(CNC(=O)c4cnnn4C)cc3OC)C2=O)ccc1OC [CU0544] | 50 (≈ 27.5 µg/mL) | –
49 | CCCCCOc1cc(N2CCCN(Cc3ccc(CC(=O)N4CCO[C@@H](CN(C)C)C4)cc3OC)C2=O)ccc1OC (stereo in doubt) [CU0186] | 348 (≈ 208 µg/mL) | 18.8
50 | COc1cc(CC(=O)N2CCOC(CN(C)C)C2)ccc1CN1CCCN(c2ccc(OC)c(OCCCC(C)(F)F)c2)C1=O (stereo not shown) [CU0170] | 435 (≈ 275 µg/mL) | 20.1
51 | CCCCCOc1cc(N2CCCN(Cc3ccc(CCN4CCN(C)CC4)cc3OC)C2=O)ccc1OC [CU0178] | 423 (≈ 228 µg/mL) | 26.7
52 | COc1ccc(N2CCCN(Cc3ccnc4c3c(Cl)cn4CC(=O)N(C)C)C2=O)cc1OCCCC(C)(C)C [CU0595] | < 10 | –
53 | COc1cc(CNC(C)=O)ccc1CN1CCCN(c2ccc(OC)c(OCCCC3CCC3)c2)C1=O [CU0546] | < 10 | –
54 | CCCCCOc1cc(N2CCCN(Cc3ccnc4c3c(Cl)cn4CC(=O)NC(C)C)C2=O)ccc1OC [CU0553] | 12 (≈ 6.67 µg/mL) | –
55 | CCCCCOc1cc(N2CCCN(Cc3ccnc4c3c(Cl)cn4CCN3CCCS3(=O)=O)C2=O)ccc1OC [CU0577] | 13 (≈ 7.85 µg/mL) | –
